The values below come from patent US20040147595A1, “Biofilm degrading or sloughing compositions and methods” (priority 2001, published 2004).

The structures appear in SMILES notation. “Also recorded” adds a separate entry of the source.

Assay [1] has as its system P. aeruginosa PAO1 biofilm. In words: Wild type P. aeruginosa PAO1 flowcell biofilm, lasB-gfp(ASV) reporter and Rfp tag, long term. Type of assay: cell-based, Pseudomonas aeruginosa. The protocol: (§1) P. aeruginosa biofilms. Biofilms were grown at 30° C. in three-dimensional flow cells (Christensen et al., 1999) with individual channel dimensions of 0.3×4×40 mm supplied With ABt minimal medium supplemented with 2% LB. The flow system was assembled and prepared as described by Christensen et al. (1999). The substratum consisted of a microscope glass coverslip (Knittel 24×50 mm st1, Knittel Glaser, Braunschweig, Germany). Cultures for inoculation of the flow channels were prepared in the following way: P. aeruginosa strains were streaked on LB plates with the appropriate antibiotics and incubated for 24 h at 37° C. From each plate a single colony was used for inoculation of 10 ml ABt with 10% LB. The cultures were grown at, 30° C. for 18 h before they were diluted to an OD600 nm of 0.1 in sterile 0.9% NaCl and used for inoculation of the flow channels. Medium flow was kept at a constant rate of 3 mL/h, equivalent to a mean flow velocity of 0.7 mm/s, using a Watson-Marlow 205S peristaltic pump (Watson-Marlow, Falmouth, England). Biofilms were grown for 24 hours before being shifted to media containing AHL and furanone.
(§2) Scanning confocal laser microscopy (SCLM). Microscopic inspection and image acquisition were performed an a scanning confocal laser microscope (model TCS4D, Leica Lasertechnik GmbH, Heldelberg, Germany) equipped with a 63×/1.32-0.6 oil objective. The microscope was equipped with a motorized and programmable xy-stage, which was used for monitoring single colonies during the biofilm experiments. At the beginning of each online experiment, the microscope was programmed to track single randomly selected microcolonies; the sensitivity of photo multipliers and the laser intensity were adjusted and thereafter kept constant through out the duration of the experiments. Image scanning was carried out using the 488 nm and 568 nm lines of an Ar/Kr laser for detection of Gfp and Rfp, respectively. Visualization of captured images was performed using the IMARIS software package (Bitplane AG, Zúrich, Switzerland) running on a Silicon Graphics Indigo 2 workstation (Silicon Graphics, Mountain View, Calif. USA).
Furanone 66 represses lasB-expression in wild type P. aeruginosa biofilms. Wild type P. aeruginosa (PAO1) carrying a chromosomally integrated lasB-gfp(ASV) reporter system was grown in flowcells similar to the PAO-JP2-based reporter strain. We focused on studying the effect of furanone 56 in loan term biofilm experiments. In favor of this approach is the observation by Davies et al. (1998) that quorum sensing is involved in maturation of P. aeruginosa biofilms (up to 2 weeks old). In order to support such longterm cultivation, the biofilm medium was modified to contain 0.3 mM glucose instead of 2% LB as a carbon source. In addition, the recently available Red Fluorescent Protein (Rfp) derived from the indopacific sea anemone Discosome was employed to provide a red fluorescent tag on the biofilm bacteria. A mini-Tn5 transposon with the dsred gene under control of the strong constitutive lac promoter was inserted into the chromosome of PAO1 containing the lasB reporter system.
The dual-labeled PAO1 strain was inoculated A grown in flowcells in the absence and presence of 5 μg/ml furanone 56. The flowcells were inspected daily for ten days and scanning confocal photomicrographs were captured (FIG. 6 & 7). For clarity, the green and red fluorescent signals from the same area of the biofilm are shown separately. Because the cells constitutively express Rfp, the red color correlates with cell mass, whereas the green fluorescence indicates active transcription of the lasB-gfp(ASV) reporter gene in response to on-going bacterial communication.

Assay [2] concerns V. fisheri lux quorum sensing system (LuxR). In words: V. fisheri luxR PluxI-gfp(ASV) reporter in PAO-JP2 biofilm. Type of assay: cell-based, Pseudomonas aeruginosa. The protocol:
as §1, §2
Repression of LuxR-activated quorum sensing controlled gene transcription. We speculated that the AHL-antagonstic properties of furanone 56 was specific to the P. aeruginosa las quorum sensing system. To test this, a previously published quorum sensing reporter based on the Vibro fisherf luxR gene and Pluxl-gfp(ASV) (Anderson at al, 2001; Wu et al, 2000) was transferred to PAO-JP2.

As for `O=C1C=C/C(=C/Br)O1` [furanone 56], in assay [1] (5 μg/ml furanone 56), the “reporter system in biofilms” value is on record as “partially shut down”. Also, the “complete inhibition of the lasB-gfp(ASV) reporter in all biofilm bacteria” value in assay [1] (concentrations with no effect on growth (<10 μg/ml)) was “not achievable”. Further, in assay [1] (day 1, 5 μg/ml furanone 56), the “bacterial signaling (green fluorescence)” value is recorded as “greatly reduced”. Moreover, the early biofilm formation entry in assay [1] (day 1, 5 μg/ml furanone 56) is “not or only slightly affected”. In addition, in assay [1] (day 7, 5 μg/ml furanone 56), the “green fluorescence of biofilm cells” value is reported as “far less green fluorescence”. In addition, the average biofilm thickness in assay [1] (day 7, 5 μg/ml furanone 56 (untreated 61±6 μm)) stood at 23±4 μm. In assay [1] (wild type biofilm grown in the presence of furanone), the biofilm maturation entry is listed as “failed to mature”. Besides, the “green fluorescence of biofilm” value is on record as “completely disappeared” in assay [2] (250 nM OHHL and 15 μg/ml furanone 56, 7 hours); “almost completely disappeared” in assay [2] (250 nM OHHL and 15 μg/ml furanone 56, six hours); “significantly less green fluorescent; also recorded: decreased significantly” in assay [2] (250 nM OHHL and 15 μg/ml furanone 56, two hours).
